What all share (assay type): cell-based
The subject of one assay is S. Aureus UC ® 9213. The experiment in a line: In vitro minimum inhibitory concentration (MIC) by agar dilution, gram-positive bacteria (Table 1). The note with it: Staphylococcus aureus, UC9213. From the text:
(§1) The oxazolidinone antibacterial agents of this invention have useful activity against a variety of microorganisms. The in vitro activity of compounds of this invention can be assessed by standard testing procedures such as the determination of minimum inhibitory concentration (MIC) by agar dilution as described in "Methods for Dilution Antimicrobial Susceptibility Tests for Bacteria That Grow Aerobically" (MFT) published January 1983 by the National Committee for Clinical Laboratory Standards, 771 East Lancaster Avenue, Villanova, Pa. 19084, USA. The activity of selected compounds of this invention against Staphylococcus aureus and Streptococcus pneumoniae are shown in Table 1.
(In agar dilution the substance is mixed into plates at graded concentrations.)

A further assay has as its system S. pneumoniae UC ® 9912. Described as above. The note with it: Streptococcus pneumoniae, UC9912.
From the text: as §1

The test system of another assay is HI 30063. The experiment in a line: MIC for a gram negative bacterial strain (Table 2). The following applies: gram negative bacterial strain HI 30063.

≈ marks a conversion by molar mass, not a printed value. Some results are limits rather than exact numbers.

One may read the MIC as the lowest concentration found to suppress growth. Lower therefore signals greater potency. As to `CC(=O)NC[C@H]1CN(c2ccc(-c3nnc(C#N)s3)c(F)c2)C(=O)O1` [Example 1, (S)-N-[[3-[4-(5-Cyano-1,3,4-thiadiazol-2-yl)-3-fluorophenyl]-2-oxo-5-oxazolidinyl]methyl]acetamide], the MIC against S. Aureus UC ® 9213 is 0.5 µg/mL (≈ 1.38 µM); against S. pneumoniae UC ® 9912, < 0.125 µg/mL; against HI 30063, 2 µg/mL (≈ 5.53 µM).
For `CC(=O)NC[C@H]1CN(c2ccc(-c3nnc(C)s3)c(F)c2)C(=O)O1` [Example 3, (S)-N-[[3-[3-Fluoro-4-(5-methyl-1,3,4-thiadiazol-2-yl)phenyl]-2-oxo-5-oxazolidinyl]methyl]acetamide], in that order: 1 µg/mL (≈ 2.85 µM), < 0.125 µg/mL and 2 µg/mL (≈ 5.71 µM).
For `CCc1nnc(-c2ccc(N3C[C@H](CNC(C)=O)OC3=O)cc2F)s1` [Example 4, (S)-N-[[3-[4-(5-Ethyl-1,3,4-thiadiazol-2-yl)-3-fluorophenyl]-2-oxo-5-oxazolidinyl]methyl]acetamide], in that order: 1 µg/mL (≈ 2.74 µM), 0.25 µg/mL (≈ 0.686 µM) and 4 µg/mL (≈ 11 µM).
Taken in the same sequence, the figures for `CC(=O)NC[C@H]1CN(c2ccc(-c3nnc(CN)s3)c(F)c2)C(=O)O1` [Example 6, (S)-N-[[3-[4-[5-(Aminomethyl)-1,3,4-thiadiazol-2-yl]-3-fluorophenyl]-2-oxo-5-oxazolidinyl]methyl]acetamide] were 8 µg/mL (≈ 21.9 µM), < 0.125 µg/mL and 2 µg/mL (≈ 5.47 µM).
`CC(=O)NC[C@H]1CN(c2ccc(-c3nnc(CNS(C)(=O)=O)s3)c(F)c2)C(=O)O1` [Example 7, (S)-N-[[3-[3-Fluoro-4-[5-[[(methylsulfonyl)amino]methyl]-1,3,4-thiadiazol-2-yl]phenyl]-2-oxo-5-oxazolidinyl]methyl]acetamide]: the MIC with S. Aureus UC ® 9213 is 4 µg/mL (≈ 9.02 µM); with S. pneumoniae UC ® 9912, < 0.125 µg/mL; in the assay on HI 30063, 2 µg/mL (≈ 4.51 µM).
For `CC(=O)NC[C@H]1CN(c2ccc(-c3nnc(CF)s3)c(F)c2)C(=O)O1` [Example 8, (S)-N-[[3-[3-Fluoro-4-(5-fluoromethyl-1,3,4-thiadiazol-2-yl)phenyl]-2-oxo-5-oxazolidinyl]methyl]acetamide], in that order: 1 µg/mL (≈ 2.71 µM), 0.25 µg/mL (≈ 0.679 µM) and 4 µg/mL (≈ 10.9 µM).
`CC(=O)NC[C@H]1CN(c2ccc(-c3nncs3)c(F)c2)C(=O)O1` [Example 9, (S)-N-[[3-[3-Fluoro-4-(1,3,4-thiadiazol-2-yl)phenyl]-2-oxo-5-oxazolidinyl]methyl]acetamide]: the MIC came out at 1 µg/mL (≈ 2.97 µM) against S. Aureus UC ® 9213, 0.25 µg/mL (≈ 0.743 µM) in the assay on S. pneumoniae UC ® 9912 and 4 µg/mL (≈ 11.9 µM) in the assay on HI 30063.
For `CC(=O)NC[C@H]1CN(c2ccc(-c3nnc(COC(C)=O)s3)c(F)c2)C(=O)O1` [Example 10, (S)-N-[[3-[4-(5-Acetoxymethyl-1,3,4-thiadiazol-2-yl)-3-fluorophenyl]-2-oxo-5-oxazolidinyl]methyl]acetamide], the MIC in the assay with S. Aureus UC ® 9213 is 1 µg/mL (≈ 2.45 µM); with S. pneumoniae UC ® 9912, < 0.125 µg/mL; with HI 30063, 4 µg/mL (≈ 9.79 µM).
Taken in the same sequence, the figures for `CC(=O)NC[C@H]1CN(c2ccc(-c3nnc(CO)s3)c(F)c2)C(=O)O1` [Example 11, (S)-N-[[3-[3-Fluoro-4-(5-hydroxymethyl-1,3,4-thiadiazol-2-yl)phenyl]-2-oxo-5-oxazolidinyl]methyl]acetamide] were 1 µg/mL (≈ 2.73 µM), < 0.125 µg/mL and 4 µg/mL (≈ 10.9 µM).
Regarding `CC(=O)NC[C@H]1CN(c2ccc(-c3nnc(CC#N)s3)c(F)c2)C(=O)O1` [Example 13, (S)-N-[[3-[4-[5-(Cyanomethyl)-1,3,4-thiadiazol-2-yl]-3-fluorophenyl]-2-oxo-5-oxazolidinyl]methyl]acetamide], the results for the MIC against S. Aureus UC ® 9213, in the assay with S. pneumoniae UC ® 9912 and against HI 30063 were 2 µg/mL (≈ 5.33 µM), 0.25 µg/mL (≈ 0.666 µM) and 4 µg/mL (≈ 10.7 µM), respectively.
Taken in the same sequence, the figures for `CC(=O)NC[C@H]1CN(c2ccc(-c3nnc(CC(N)=O)s3)c(F)c2)C(=O)O1` [Example 14, (S)-5-[4-[5-[(Acetylamino)methyl]-2-oxo-3-oxazolidinyl]-2-fluorophenyl]-1,3,4-thiadiazole-2-acetamide] were 4 µg/mL (≈ 10.2 µM), < 0.125 µg/mL and 4 µg/mL (≈ 10.2 µM).
For the compound `CC(=O)CCc1nnc(-c2ccc(N3C[C@H](CNC(C)=O)OC3=O)cc2F)s1` [Example 16, (S)-N-[[3-[3-Fluoro-4-[5-(3-oxobutyl)-1,3,4-thiadiazol-2-yl]phenyl]-2-oxo-5-oxazolidinyl]methyl]acetamide], the MIC is 1 µg/mL (≈ 2.46 µM) with S. Aureus UC ® 9213, < 0.125 µg/mL with S. pneumoniae UC ® 9912 and 4 µg/mL (≈ 9.84 µM) against HI 30063.
For `CC(=O)NC[C@H]1CN(c2ccc(-c3nnc(CCC#N)s3)c(F)c2)C(=O)O1` [Example 20, (S)-N-[[3-[4-[5-(2-Cyanoethyl)-1,3,4-thiadiazol-2-yl]-3-fluorophenyl]-2-oxo-5-oxazolidinyl]methyl]acetamide], in that order: 0.5 µg/mL (≈ 1.28 µM), < 0.125 µg/mL and 2 µg/mL (≈ 5.14 µM).
Regarding `CC(=O)NC[C@H]1CN(c2ccc(-c3nnc(CC[S+](C)[O-])s3)c(F)c2)C(=O)O1` (stereo partly drawn) [Example 24, (S)-N-[[3-[3-Fluoro-4-[5-[2-(methylsulfinyl)ethyl]-1,3,4-thiadiazol-2-yl]phenyl]-2-oxo-5-oxazolidinyl]methyl]acetamide], the MIC worked out at 4 µg/mL (≈ 9.38 µM) in the assay with S. Aureus UC ® 9213, 0.25 µg/mL (≈ 0.586 µM) against S. pneumoniae UC ® 9912 and 4 µg/mL (≈ 9.38 µM) with HI 30063.
Take `CC(=O)NCc1nnc(-c2ccc(N3C[C@H](CNC(C)=O)OC3=O)cc2F)s1` [Example 49, (S)-N-[[5-[4-[5-[(Acetylamino)methyl]-2-oxo-3-oxazolidinyl]-2-fluorophenyl]-1,3,4-thiadiazol-2-yl]methyl]acetamide]: the MIC in the assay on S. Aureus UC ® 9213 came to 16 µg/mL (≈ 39.3 µM); with S. pneumoniae UC ® 9912 it was 0.25 µg/mL (≈ 0.614 µM).
Taken in the same sequence, the figures for `CC(=O)NC[C@H]1CN(c2ccc(-c3nnc(CCCN)s3)c(F)c2)C(=O)O1` [Example 57, (S)-N-[[3-[4-[5-(3-Aminopropyl)-1,3,4-thiadiazol-2-yl]-3-fluorophenyl]-2-oxo-5-oxazolidinyl]methyl]acetamide] were 16 µg/mL (≈ 40.7 µM) and 0.5 µg/mL (≈ 1.27 µM).
For `CC(=O)NCCCc1nnc(-c2ccc(N3C[C@H](CNC(C)=O)OC3=O)cc2F)s1` [Example 58, (S)-N-[3-[5-[4-[5-[(Acetylamino)methyl]-2-oxo-3-oxazolidinyl]-2-fluorophenyl]-1,3,4-thiadiazol-2-yl]propyl]acetamide], in that order: 8 µg/mL (≈ 18.4 µM) and 0.25 µg/mL (≈ 0.574 µM).
Taken in the same sequence, the figures for `CC(=O)NC[C@H]1CN(c2ccc(-c3nnc(C(C)=O)s3)c(F)c2)C(=O)O1` [Example 59, (S)-N-[[3-[4-(5-Acetyl-1,3,4-thiadiazol-2-yl)-3-fluorophenyl]-2-oxo-5-oxazolidinyl]methyl]acetamide] were 2 µg/mL (≈ 5.29 µM) and 0.5 µg/mL (≈ 1.32 µM).
With `CC(=O)NC[C@H]1CN(c2ccc(-c3nnc(CCCCl)s3)c(F)c2)C(=O)O1` [Example 60, (S)-N-[[3-[4-[5-(3-Chloropropyl)-1,3,4-thiadiazol-2-yl]-3-fluorophenyl]-2-oxo-5-oxazolidinyl]methyl]acetamide], the values for the MIC against S. Aureus UC ® 9213 and in the assay with S. pneumoniae UC ® 9912 were 2 µg/mL (≈ 4.84 µM) and 0.5 µg/mL (≈ 1.21 µM), respectively.
For `CC(=O)NC[C@H]1CN(c2ccc(-c3nnc(S(C)(=O)=O)s3)c(F)c2)C(=O)O1` [Example 62, (S)-N-[[3-[3-Fluoro-4-[5-(methylsulfonyl)-1,3,4-thiadiazol-2-yl]phenyl]-2-oxo-5-oxazolidinyl]methyl]acetamide], in that order: 2 µg/mL (≈ 4.83 µM) and 0.5 µg/mL (≈ 1.21 µM).
With `CON=C(C)CCc1nnc(-c2ccc(N3C[C@H](CNC(C)=O)OC3=O)cc2F)s1` [Example 65, (S)-N-[[3-[3-Fluoro-4-[5-[3-(methoxyimino)butyl]-1,3,4-thiadiazol-2-yl]phenyl]-2-oxo-5-oxazolidinyl]methyl]acetamide], the results for the MIC with S. Aureus UC ® 9213 and in the assay on S. pneumoniae UC ® 9912 were 8 µg/mL (≈ 18.4 µM) and 2 µg/mL (≈ 4.59 µM), respectively.
Taken in the same sequence, the figures for `CC(=O)NC[C@H]1CN(c2ccc(-c3nnc(CNC(=O)COC(C)=O)s3)c(F)c2)C(=O)O1` [Example 66] were 16 µg/mL (≈ 34.4 µM) and < 0.5 µg/mL.
For `CC(=O)NC[C@H]1CN(c2ccc(-c3nnc(CNC(=O)CO)s3)c(F)c2)C(=O)O1` [Example 67], in that order: 16 µg/mL (≈ 37.8 µM) and < 0.5 µg/mL.
For `CC(=O)NC[C@H]1CN(c2ccc(-c3nnc(NC(=O)COC(C)=O)s3)c(F)c2)C(=O)O1` [Example 68, (S)-N-[5-[4-[5-[(Acetylamino)methyl]-2-oxo-3-oxazolidinyl]-2-fluorophenyl]-1,3,4-thiadiazol-2-yl]-2-(acetyloxy)acetamide], in that order: 8 µg/mL (≈ 17.7 µM) and 2 µg/mL (≈ 4.43 µM).
For `CC(=O)NC[C@H]1CN(c2ccc(-c3nnc(CS(C)(=O)=O)s3)c(F)c2)C(=O)O1` [Example 69, (S)-N-[[3-[3-Fluoro-4-[5-[(methylsulfonyl)methyl]-1,3,4-thiadiazol-2-yl]phenyl]-2-oxo-5-oxazolidinyl]methyl]acetamide], the MIC against S. Aureus UC ® 9213 was 4 µg/mL (≈ 9.34 µM); in the assay on S. pneumoniae UC ® 9912, < 0.5 µg/mL.
For the compound `CCC(=O)NC[C@H]1CN(c2ccc(-c3nnc(CCOC)s3)c(F)c2)C(=O)O1` [Example 72, (S)-N-[[3-[3-Fluoro-4-[5-(2-methoxyethyl)-1,3,4-thiadiazol-2-yl]phenyl]-2-oxo-5-oxazolidinyl]methyl]propanamide], the minimal inhibitory concentration (MIC) was 4 µg/mL (≈ 9.79 µM) against S. Aureus UC ® 9213 and 0.25 µg/mL (≈ 0.612 µM) in the assay on S. pneumoniae UC ® 9912.
Taken in the same sequence, the figures for `COCCc1nnc(-c2ccc(N3C[C@H](CNC(C)=O)OC3=O)cc2F)s1` [Example 73, (S)-N-[[3-[3-Fluoro-4-[5-(2-methoxyethyl)-1,3,4-thiadiazol-2-yl]phenyl]-2-oxo-5-oxazolidinyl]methyl]acetamide] were 2 µg/mL (≈ 5.07 µM) and < 0.5 µg/mL.

The values are drawn from US5977373A, “Thiadiazolyl and oxadiazolyl phenyl oxazolidinone antibacterial agents” (Pharmacia & Upjohn Company, priority 1998, dated 1999).
